For assay [1], the target named is T1, Calcium/calmodulin-dependent protein kinase type IV (Homo sapiens) (UniProt Q16566).
T1 sequence (whole entry): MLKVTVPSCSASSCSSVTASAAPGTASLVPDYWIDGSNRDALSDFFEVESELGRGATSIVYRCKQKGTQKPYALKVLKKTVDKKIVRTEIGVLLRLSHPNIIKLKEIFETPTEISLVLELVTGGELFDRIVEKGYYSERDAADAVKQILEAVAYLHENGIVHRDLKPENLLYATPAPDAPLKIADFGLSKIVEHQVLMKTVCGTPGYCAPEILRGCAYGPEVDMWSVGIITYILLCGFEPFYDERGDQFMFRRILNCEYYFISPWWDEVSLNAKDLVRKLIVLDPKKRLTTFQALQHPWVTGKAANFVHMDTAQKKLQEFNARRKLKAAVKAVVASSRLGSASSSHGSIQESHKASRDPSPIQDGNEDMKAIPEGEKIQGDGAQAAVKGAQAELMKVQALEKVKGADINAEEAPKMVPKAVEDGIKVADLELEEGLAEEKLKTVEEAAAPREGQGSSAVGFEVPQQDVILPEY
Nature of the assay: CAMK4 SGC Tm panel (DSF). Conditions: for ΔTm: Compound concentration 10.0 uM.

Assay [2] deals with Dual specificity protein kinase CLK1 (Homo sapiens) (UniProt P49759). Nature of the assay: CLK1 SGC Tm panel (DSF). The settings on record: for ΔTm: Compound concentration 10.0 uM.
Dual specificity protein kinase CLK1 (Homo sapiens), sequence (P49759 whole entry, looked up): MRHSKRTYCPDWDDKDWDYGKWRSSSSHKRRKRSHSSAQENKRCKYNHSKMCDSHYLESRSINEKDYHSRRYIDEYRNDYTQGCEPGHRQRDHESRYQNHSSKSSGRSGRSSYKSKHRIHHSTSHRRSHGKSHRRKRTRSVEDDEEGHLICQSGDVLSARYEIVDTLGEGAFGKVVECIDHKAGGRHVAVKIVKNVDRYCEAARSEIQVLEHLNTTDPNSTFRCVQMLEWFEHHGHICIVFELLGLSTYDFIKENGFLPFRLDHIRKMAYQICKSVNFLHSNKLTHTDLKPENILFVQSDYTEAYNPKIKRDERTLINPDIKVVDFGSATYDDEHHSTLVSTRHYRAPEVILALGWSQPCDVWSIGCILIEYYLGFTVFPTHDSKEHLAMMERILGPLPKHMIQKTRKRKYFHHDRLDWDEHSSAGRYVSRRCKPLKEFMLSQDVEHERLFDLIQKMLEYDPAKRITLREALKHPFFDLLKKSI
The target in assay [3] is T2, Dual specificity protein kinase TTK (Homo sapiens) (UniProt P33981).
T2 sequence (whole entry): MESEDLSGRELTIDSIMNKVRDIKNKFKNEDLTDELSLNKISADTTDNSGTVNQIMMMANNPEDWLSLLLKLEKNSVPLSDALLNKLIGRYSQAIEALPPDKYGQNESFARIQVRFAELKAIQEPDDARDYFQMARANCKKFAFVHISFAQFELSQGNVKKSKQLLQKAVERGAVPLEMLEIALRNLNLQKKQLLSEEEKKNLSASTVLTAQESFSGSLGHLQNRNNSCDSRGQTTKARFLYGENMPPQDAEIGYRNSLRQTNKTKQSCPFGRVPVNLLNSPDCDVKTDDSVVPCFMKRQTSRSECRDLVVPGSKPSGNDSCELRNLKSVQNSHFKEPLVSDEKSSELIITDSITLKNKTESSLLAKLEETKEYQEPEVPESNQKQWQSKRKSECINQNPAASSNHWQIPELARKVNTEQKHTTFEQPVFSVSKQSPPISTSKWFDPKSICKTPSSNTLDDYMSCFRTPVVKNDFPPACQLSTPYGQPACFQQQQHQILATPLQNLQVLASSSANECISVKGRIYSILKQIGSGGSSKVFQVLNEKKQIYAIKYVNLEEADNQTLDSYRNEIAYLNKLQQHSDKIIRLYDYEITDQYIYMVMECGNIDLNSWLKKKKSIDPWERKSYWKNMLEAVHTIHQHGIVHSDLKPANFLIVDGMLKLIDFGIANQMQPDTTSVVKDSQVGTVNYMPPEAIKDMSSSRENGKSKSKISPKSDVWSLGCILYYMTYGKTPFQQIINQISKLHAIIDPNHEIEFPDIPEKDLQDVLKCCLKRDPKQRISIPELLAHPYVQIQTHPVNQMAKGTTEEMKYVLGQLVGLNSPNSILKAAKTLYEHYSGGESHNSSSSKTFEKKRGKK
Kind of assay: TTK SGC Tm panel (DSF). Conditions: for ΔTm: Compound concentration 10.0 uM.

The target in assay [4] is Fibroblast growth factor receptor 1 (Homo sapiens) (UniProt P11362). Nature of the assay: FGFR1 SGC Tm panel (DSF). The settings on record: for ΔTm: Compound concentration 10.0 uM.
Fibroblast growth factor receptor 1 (Homo sapiens), sequence (P11362 22-822 limits assumed): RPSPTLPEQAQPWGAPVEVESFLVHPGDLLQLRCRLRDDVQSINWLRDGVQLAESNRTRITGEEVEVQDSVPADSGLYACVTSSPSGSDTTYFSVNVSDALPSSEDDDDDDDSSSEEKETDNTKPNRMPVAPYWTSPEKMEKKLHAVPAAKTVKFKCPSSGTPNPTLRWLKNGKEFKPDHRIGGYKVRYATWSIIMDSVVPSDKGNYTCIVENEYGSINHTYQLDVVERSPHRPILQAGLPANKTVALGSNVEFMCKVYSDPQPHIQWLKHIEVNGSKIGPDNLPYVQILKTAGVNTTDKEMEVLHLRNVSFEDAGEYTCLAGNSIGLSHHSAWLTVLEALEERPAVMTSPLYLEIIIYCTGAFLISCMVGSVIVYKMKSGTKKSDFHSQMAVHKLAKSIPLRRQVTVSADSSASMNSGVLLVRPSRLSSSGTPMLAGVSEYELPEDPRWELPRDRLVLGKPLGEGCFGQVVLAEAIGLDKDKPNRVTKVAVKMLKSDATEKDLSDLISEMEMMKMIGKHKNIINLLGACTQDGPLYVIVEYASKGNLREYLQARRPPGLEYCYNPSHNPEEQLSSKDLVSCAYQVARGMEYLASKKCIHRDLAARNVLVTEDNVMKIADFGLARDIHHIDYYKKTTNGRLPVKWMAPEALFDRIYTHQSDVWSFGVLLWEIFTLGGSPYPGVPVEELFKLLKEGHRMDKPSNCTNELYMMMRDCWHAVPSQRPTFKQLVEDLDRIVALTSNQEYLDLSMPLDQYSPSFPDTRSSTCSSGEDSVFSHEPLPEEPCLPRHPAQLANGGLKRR
Assay [5] concerns the target Glycogen synthase kinase-3 beta (Homo sapiens) (UniProt P49841). Nature of the assay: GSK3B SGC Tm panel (DSF). The settings on record: for ΔTm: Compound concentration 10.0 uM.
The target of assay [6] is Proto-oncogene tyrosine-protein kinase Src (Homo sapiens) (UniProt P12931). Kind of assay: SRC SGC Tm panel (DSF). Conditions: for ΔTm: Compound concentration 10.0 uM.
Proto-oncogene tyrosine-protein kinase Src (Homo sapiens), sequence (P12931 2-536 limits assumed): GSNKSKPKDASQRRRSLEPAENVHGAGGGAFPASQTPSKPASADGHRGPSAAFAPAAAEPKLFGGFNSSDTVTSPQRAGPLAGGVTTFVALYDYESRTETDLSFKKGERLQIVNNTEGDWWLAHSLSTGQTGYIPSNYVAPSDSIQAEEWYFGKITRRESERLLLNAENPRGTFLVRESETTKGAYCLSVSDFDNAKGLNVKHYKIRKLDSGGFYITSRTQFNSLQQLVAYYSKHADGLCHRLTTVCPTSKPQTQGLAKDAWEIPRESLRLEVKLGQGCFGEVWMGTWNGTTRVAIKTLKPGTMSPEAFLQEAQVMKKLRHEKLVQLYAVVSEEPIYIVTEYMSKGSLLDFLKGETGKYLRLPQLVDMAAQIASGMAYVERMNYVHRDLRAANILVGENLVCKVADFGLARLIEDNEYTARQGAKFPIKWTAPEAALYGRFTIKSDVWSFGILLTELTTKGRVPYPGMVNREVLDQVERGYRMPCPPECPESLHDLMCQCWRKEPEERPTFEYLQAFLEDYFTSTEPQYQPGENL
The target of assay [7] is T3, Serine/threonine-protein kinase ULK1 (Homo sapiens) (UniProt O75385).
T3 sequence (whole entry): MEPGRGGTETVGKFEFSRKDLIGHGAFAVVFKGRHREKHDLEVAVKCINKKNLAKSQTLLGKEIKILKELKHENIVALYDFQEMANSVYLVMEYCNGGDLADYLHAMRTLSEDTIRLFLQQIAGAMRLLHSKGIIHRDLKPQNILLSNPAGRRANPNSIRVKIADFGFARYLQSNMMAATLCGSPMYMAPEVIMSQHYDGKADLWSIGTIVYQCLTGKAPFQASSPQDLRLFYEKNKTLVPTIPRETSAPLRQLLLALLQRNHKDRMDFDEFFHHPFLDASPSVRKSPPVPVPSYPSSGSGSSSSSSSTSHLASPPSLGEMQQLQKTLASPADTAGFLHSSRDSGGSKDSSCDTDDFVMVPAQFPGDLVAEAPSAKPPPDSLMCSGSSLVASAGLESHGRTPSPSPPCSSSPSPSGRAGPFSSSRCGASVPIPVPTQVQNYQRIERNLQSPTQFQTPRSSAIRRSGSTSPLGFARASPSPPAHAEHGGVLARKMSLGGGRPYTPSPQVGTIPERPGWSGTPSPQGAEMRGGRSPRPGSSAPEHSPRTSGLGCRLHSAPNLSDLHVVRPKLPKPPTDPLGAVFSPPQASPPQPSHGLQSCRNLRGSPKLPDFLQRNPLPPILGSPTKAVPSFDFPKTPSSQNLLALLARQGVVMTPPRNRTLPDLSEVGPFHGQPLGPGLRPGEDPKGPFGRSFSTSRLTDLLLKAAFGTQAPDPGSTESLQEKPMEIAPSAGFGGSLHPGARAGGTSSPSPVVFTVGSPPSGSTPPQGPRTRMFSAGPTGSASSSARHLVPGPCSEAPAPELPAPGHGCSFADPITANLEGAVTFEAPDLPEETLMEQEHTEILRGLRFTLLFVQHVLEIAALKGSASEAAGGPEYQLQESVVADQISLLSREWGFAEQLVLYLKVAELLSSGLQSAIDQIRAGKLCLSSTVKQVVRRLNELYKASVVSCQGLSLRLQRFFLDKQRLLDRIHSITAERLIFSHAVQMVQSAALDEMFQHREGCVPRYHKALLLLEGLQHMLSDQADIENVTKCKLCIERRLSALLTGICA
Kind of assay: ULK1 SGC Tm panel (DSF). Conditions: for ΔTm: Compound concentration 10.0 uM.

For assay [8], the target named is Aurora kinase B (Homo sapiens) (UniProt Q96GD4). Nature of the assay: AURKB SGC Tm panel (DSF). Conditions: for ΔTm: Compound concentration 10.0 uM.
Aurora kinase B (Homo sapiens), sequence (Q96GD4 whole entry): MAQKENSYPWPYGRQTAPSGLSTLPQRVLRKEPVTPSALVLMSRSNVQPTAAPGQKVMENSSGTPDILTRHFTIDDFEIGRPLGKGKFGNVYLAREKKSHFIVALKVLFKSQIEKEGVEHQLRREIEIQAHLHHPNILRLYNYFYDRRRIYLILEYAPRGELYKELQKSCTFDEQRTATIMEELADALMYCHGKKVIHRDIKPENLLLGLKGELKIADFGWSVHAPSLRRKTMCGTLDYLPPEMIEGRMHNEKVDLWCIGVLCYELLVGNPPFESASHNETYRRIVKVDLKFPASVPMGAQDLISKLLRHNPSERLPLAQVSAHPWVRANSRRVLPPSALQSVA
Assay [9] addresses MAP kinase-activated protein kinase 2 (Homo sapiens) (UniProt P49137). Nature of the assay: MAPKAPK2 SGC Tm panel (DSF). The settings on record: for ΔTm: Compound concentration 10.0 uM.
Assay [10] deals with Mu-type opioid receptor (Homo sapiens) (UniProt P35372). Conditions: Compound concentration 10.0 uM.
Mu-type opioid receptor (Homo sapiens), sequence (P35372 whole entry): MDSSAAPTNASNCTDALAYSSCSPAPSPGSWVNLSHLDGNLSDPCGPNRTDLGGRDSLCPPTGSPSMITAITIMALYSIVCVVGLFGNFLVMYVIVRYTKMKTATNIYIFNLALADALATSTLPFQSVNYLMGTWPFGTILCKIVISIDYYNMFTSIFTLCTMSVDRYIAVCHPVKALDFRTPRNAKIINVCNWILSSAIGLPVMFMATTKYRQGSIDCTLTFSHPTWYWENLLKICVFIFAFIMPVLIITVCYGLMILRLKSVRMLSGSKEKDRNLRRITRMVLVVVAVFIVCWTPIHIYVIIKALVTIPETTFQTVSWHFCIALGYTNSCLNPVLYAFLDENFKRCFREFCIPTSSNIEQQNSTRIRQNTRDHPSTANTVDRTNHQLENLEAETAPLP
The target in assay [11] is Muscarinic acetylcholine receptor M4 (Homo sapiens) (UniProt P08173). Conditions: Compound concentration 10.0 uM.
Muscarinic acetylcholine receptor M4 (Homo sapiens), sequence (P08173 whole entry): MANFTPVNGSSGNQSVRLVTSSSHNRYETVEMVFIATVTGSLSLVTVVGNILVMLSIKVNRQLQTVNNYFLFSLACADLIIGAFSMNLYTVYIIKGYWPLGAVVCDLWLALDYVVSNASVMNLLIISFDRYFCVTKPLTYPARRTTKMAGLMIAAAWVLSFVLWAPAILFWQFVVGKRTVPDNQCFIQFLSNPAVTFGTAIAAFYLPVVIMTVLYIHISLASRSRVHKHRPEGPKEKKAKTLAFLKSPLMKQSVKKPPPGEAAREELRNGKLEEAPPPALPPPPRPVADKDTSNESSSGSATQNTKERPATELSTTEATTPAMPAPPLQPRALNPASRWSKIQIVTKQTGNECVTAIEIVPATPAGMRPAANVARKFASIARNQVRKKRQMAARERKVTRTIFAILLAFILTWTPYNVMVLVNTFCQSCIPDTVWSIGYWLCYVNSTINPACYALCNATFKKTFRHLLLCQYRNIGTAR

SMILES strings stand for the structures.

Broadly, the inhibition is the drop in the measured response relative to a control, in per cent.

Glycogen synthase kinase-3 beta (Homo sapiens), sequence (P49841 whole entry, looked up): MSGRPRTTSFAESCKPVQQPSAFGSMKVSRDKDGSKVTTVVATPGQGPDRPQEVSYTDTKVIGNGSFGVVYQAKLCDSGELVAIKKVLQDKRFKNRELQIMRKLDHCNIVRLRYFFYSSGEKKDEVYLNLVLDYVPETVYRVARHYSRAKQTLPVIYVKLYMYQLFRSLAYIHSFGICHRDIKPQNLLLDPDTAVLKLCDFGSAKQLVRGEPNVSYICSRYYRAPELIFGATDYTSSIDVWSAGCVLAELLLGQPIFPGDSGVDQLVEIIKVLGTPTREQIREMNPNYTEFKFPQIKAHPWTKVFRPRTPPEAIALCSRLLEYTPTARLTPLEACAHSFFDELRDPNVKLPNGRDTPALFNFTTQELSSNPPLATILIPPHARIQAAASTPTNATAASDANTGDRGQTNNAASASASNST
MAP kinase-activated protein kinase 2 (Homo sapiens), sequence (P49137 whole entry, looked up): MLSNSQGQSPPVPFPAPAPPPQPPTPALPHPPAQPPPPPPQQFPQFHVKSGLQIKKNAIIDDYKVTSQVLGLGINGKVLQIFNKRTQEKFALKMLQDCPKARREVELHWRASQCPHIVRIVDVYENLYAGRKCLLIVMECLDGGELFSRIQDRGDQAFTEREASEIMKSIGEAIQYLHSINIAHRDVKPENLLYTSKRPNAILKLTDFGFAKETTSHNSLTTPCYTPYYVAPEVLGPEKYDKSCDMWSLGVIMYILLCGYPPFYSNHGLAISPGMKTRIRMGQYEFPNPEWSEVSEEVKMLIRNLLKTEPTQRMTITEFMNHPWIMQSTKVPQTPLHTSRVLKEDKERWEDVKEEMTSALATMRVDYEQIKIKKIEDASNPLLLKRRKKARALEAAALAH

Take `C[C@H](NC(=O)c1cn(C2(C#N)CC2)cn1)C(=O)Nc1nc(-c2cccc(-c3ccn(C)n3)c2)cs1`: the delta Tm Staurosporine positive control in [1] was determined as 8.78; in [2], 10.9; in assay [3], 8.8; in assay [4], 5.65; in assay [5], 12.1; in assay [6], 5.5. For the same compound, the figures for the delta Tm Staurosporine positive control in assay [7], in [8] and in [9] were 13.4, 13.6 and 3.41, respectively. Also, the ΔTm in assay [1] is 0.413; in assay [2], 0.522; in [3], -0.371; in assay [4], -0.166; in assay [5] it was 0.703; in [6], 0.346. Further, the ΔTm in assay [7] is 0.0519; in assay [8], 0.802; in assay [9] it was -9.54. For the same compound, the inhibition in assay [10] was 8.54%; in [11] it was 7.09%.

In the case of `COC[C@H](NC(=O)c1ccn(S(C)(=O)=O)c1)C(=O)Nc1nc(-c2cccc(-c3ccn(C)n3)c2)cs1`, the delta Tm Staurosporine positive control in [1] stood at 8.78; in [2], 10.9; in [3], 8.8; in assay [4], 5.65; in [5], 12.1; in [6], 5.5. The delta Tm Staurosporine positive control in assay [7] is 13.4; in [8] it was 13.6; in assay [9], 3.41. In addition, the ΔTm in assay [1] is 0.803; in assay [2], 0.489; in [3], -1.35; in assay [4], -0.0579; in assay [5], 0.242; in [6], -0.156. Further, the ΔTm in [7] is 0.528; in [8], 1.29; in assay [9], 0.842. Also, the values for the inhibition in assay [10] and in [11] were 18.8% and 4.13%, respectively.

Values taken from ChEMBL document CHEMBL5303766, “Data for DCP probe FHT-2344” (2022).
